From PubChem BioAssay AID179 (DTP/NCI, 2004)
Several values for one entry are separate records, joined by “and”; a condition that tells them apart may be missing. Equal values may be shown once. Activity calls are given as the source filed them.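 How the source made its calls: active means compounds giving half or more protection of infected cells from virus-caused growth loss, again on retest; inactive means the rest.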

Tested on: CEM cells HIV-1 protection, formazan growth assay
Assay: NCI AIDS Antiviral Assay
Conditions: for IC50: measured here: growth of uninfected CEM cells
In short: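 Protection of CEM cells against HIV-1 was scored from cell growth (soluble formazan) across five concentrations, with parallel uninfected cells. Lack of protection may reflect toxicity.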

## CCOC(=O)c1cnc(SCc2ccc(Cl)c(Cl)c2)nc1N1CC1C (configuration not stated)
  EC50: > 200 µM
  IC50: 6.46 µM

## Brc1cccc[n+]1Cc1cccc(C[n+]2ccccc2Br)c1
  EC50: 0.0631 µM
  IC50: 141 µM

## O=C1c2cccc3cccc(c23)C(=O)N1CC1CCCO1 (configuration not stated)
  outcome: inactive

## O=C(CCc1ccccc1)CC1OC(=O)C(Cl)=C1Cl (configuration not stated)
  EC50: > 33.1 µM
  IC50: > 33.1 µM

## Cc1ccc(-c2cn3c(nc4ccccc43)c(-c3ccccc3)n2)cc1
  EC50: > 200 µM
  IC50: 174 µM

## CC1(C)CCC2=C(O1)C(=O)c1ccccc1C2=O
  EC50: > 200 µM
  IC50: 18.2 µM and 14.5 µM

## Cc1ccc(N2C(=O)/C(=C\c3ccc(N(CCC#N)CCC#N)cc3)N=C2COc2ccccc2)cc1
  EC50: > 38 µM
  IC50: > 38 µM

## NC(CSS(=O)(=O)c1ccccc1)C(=O)O (configuration not stated)
  EC50: > 200 µM
  IC50: > 200 µM

## COC(=O)[C@@]12C(=O)C(C)C(=O)[C@]1(C)C(C)=C[C@H]1[C@]3(C=O)CC[C@H](OC(C)=O)C(C)(C)[C@H]3CC[C@@]12C (some centres not stated)
  EC50: > 200 µM
  IC50: 97.7 µM

## CCCCNCC(=O)O[C@]1(CC)C(=O)OCc2c1cc1n(c2=O)Cc2cc3ccccc3nc2-1
  EC50: > 10 µM
  IC50: 0.0776 µM

## CC(C)CN1CC(C)C(=O)NC1=O (configuration not stated)
  outcome: inactive

## c1ccc(-c2cn3c(nc4ccccc43)c(-c3ccccc3)n2)cc1
  EC50: > 200 µM
  IC50: 132 µM

## O/N=C1/C(=C/c2ccc(Oc3ccccc3)cc2)CCCC1C(NO)c1ccc(Oc2ccccc2)cc1 (configuration not stated)
  EC50: > 10.2 µM
  IC50: > 10.2 µM

## CCOC(=O)CCC(=O)Oc1ccc2c(c1OC(=O)CCC(=O)OCC)C(=O)c1ccccc1C2=O
  EC50: > 87.1 µM
  IC50: 46.8 µM

## S=c1sc2c(n1-c1ccccc1)NC=NC2S (configuration not stated)
  EC50: > 468 µM
  IC50: 22.9 µM

## COC(=O)C1(CCCCCBr)CCCCCCCCCCC1=O (configuration not stated)
  EC50: > 200 µM
  IC50: 35.5 µM

## Cc1nc2c(O)c3c(c(O)c2nc1C)C1C=CC3CC1
  EC50: > 200 µM
  IC50: 1.95 µM

## CCOC(=O)C(Cc1cc(OC)c(CC(C(=O)OCC)C(=O)OCC)cc1OC)C(=O)OCC
  outcome: inactive

## COC(=O)c1ccccc1NC(=S)NN(C)C
  EC50: > 200 µM
  IC50: 151 µM

## CC(NC(=O)C(N)CC(=O)O)NC(=O)N1CCCC1 (configuration not stated)
  EC50: > 200 µM
  IC50: > 200 µM

## CCCOC(=O)C(C)(C)C(OP(=O)(OCCC)OCCC)=C(C)C
  EC50: > 200 µM
  IC50: 105 µM

## CCCCCCCCCCCCCCCCOC1OC(CS(=O)(=O)S(=O)(=O)CC2OC(OCCCCCCCCCCCCCCCC)C(O)C(O)C2O)C(O)C(O)C1O (configuration not stated)
  EC50: > 7.94 µM

## CC(=O)n1c2ccccc2c2nc3nc(Oc4ccc(C)cc4)c4ccccc4c3cc21
  EC50: > 6.61 µM
  IC50: > 6.61 µM

## Cc1n(Cc2ccccc2)nc2sc(N)n[n+]12
  EC50: > 200 µM
  IC50: 64.6 µM

## CCOC(=O)C(Cc1c[nH]c2cc([N+](=O)[O-])ccc12)NS(=O)(=O)c1ccc2ccccc2c1 (configuration not stated)
  EC50: > 15.5 µM
  IC50: > 15.5 µM

## CN[C@@H](C)[C@@H](NC)c1ccccc1
  outcome: inactive

## CCOC(=O)/C(N=Nc1ccc(-n2c(C)nc3ccc(Br)cc3c2=O)cc1)=C(/C)O
  EC50: > 200 µM
  IC50: 39.8 µM

## O=C1Nc2ccccc2/C1=c1/sc2nc3ccccc3n2c1=O
  outcome: inactive

## O=C1c2ccccc2C(=O)C1(Cl)C(Cl)c1ccc([N+](=O)[O-])cc1 (configuration not stated)
  EC50: > 200 µM
  IC50: 12 µM

## CCN(CC)CCOc1ccc(C(O)(Cc2ccc(OC)cc2)c2ccccc2)cc1 (configuration not stated)
  outcome: inactive

## CC1=C[C@H](C[C@]2(C)c3c(c4c(C)cccc4oc3=O)O[C@@H]2C)OC1=O
  EC50: > 200 µM
  IC50: 26.9 µM

## O=C1C2CCc3cnn(-c4ccccc4)c3C2C(=O)N1c1ccccc1 (configuration not stated)
  EC50: > 200 µM
  IC50: > 200 µM

## CN(C)CCN1C(=O)CC(c2ccccc2)Sc2ccccc21 (configuration not stated)
  EC50: > 245 µM
  IC50: > 245 µM

## Cc1cc(C)nc(NS(=O)(=O)c2ccc(NNc3c4ccccc4nc4c(C(=O)Nc5ccc(S(=O)(=O)Nc6ncccn6)cc5)cccc34)cc2)n1
  EC50: > 200 µM
  IC50: 29.5 µM

## Fc1ccc(C2SCc3nc4ccccc4n32)c(F)c1 (configuration not stated)
  outcome: inactive

## CN(C)CCCNC(=O)c1nc(NC(=O)c2nc(NC(=O)c3nc(NC(=O)c4ccc(C(=O)Nc5cn(C)c(C(=O)Nc6cn(C)c(C(=O)Nc7cn(C)c(C(=O)NCCCN(C)C)n7)n6)n5)cc4)cn3C)cn2C)cn1C
  EC50: > 50.1 µM
  IC50: > 50.1 µM

## COC(=O)C1C2C=CC(C2)N1[C@@H](C)c1ccccc1 (some centres not stated)
  EC50: > 28.2 µM
  IC50: > 28.2 µM

## Cc1ccnc(NC(=S)Nc2ccccc2Cl)c1
  EC50: > 200 µM
  IC50: > 200 µM

## COC(=O)c1ccc(Cl)cc1NC(=O)C1CCCCC1
  outcome: inactive

## CC(=O)c1ccccc1NC(=O)C(=O)C(C(=O)c1ccccc1-c1ccccc1)C1OC(=O)c2ccccc21 (configuration not stated)
  EC50: > 50.1 µM
  IC50: 26.9 µM

## NNC(=S)N/N=C(/C(=O)Nc1ccc(Cl)c(Cl)c1)C(C1OC(=O)c2ccccc21)[N+](=O)[O-] (configuration not stated)
  EC50: > 501 µM
  IC50: 257 µM

## S=c1ssc2ccccc12
  EC50: > 97.7 µM
  IC50: 91.2 µM

## Cc1cn(COCCOP(=O)(OCOC(=O)C(C)(C)C)OCOC(=O)C(C)(C)C)c(=O)[nH]c1=O
  EC50: > 200 µM
  IC50: 110 µM
